Values of other authors as cited in patent US20110290909A1, “MULTI-COMPONENT INSECT ATTRACTANT” (priority 2006, published 2011).

Tests used:
[1] = system: male melon flies; conditions: cue lure compared with raspberry ketone
[2] = system: male melon fruit flies; conditions: in vivo

## CC(=O)CCc1ccc(OC(C)=O)cc1 [cue lure]
[1]
  effects on mating success: similar, short-lasting effects

## CC(=O)CCc1ccc(O)cc1 [raspberry ketone]
[1]
  effects on mating success: similar, short-lasting effects
[2]
  effectiveness as chemical attractant for male melon fruit flies: very effective chemical attractant
